# In BindingDB's records for doi:10.1021/bi1005283 (Merck Research Laboratories, 2010):
# Target: T1, Kinesin-like protein KIF11 (Homo sapiens, UniProt P52732)
# T1 sequence (P52732 whole entry): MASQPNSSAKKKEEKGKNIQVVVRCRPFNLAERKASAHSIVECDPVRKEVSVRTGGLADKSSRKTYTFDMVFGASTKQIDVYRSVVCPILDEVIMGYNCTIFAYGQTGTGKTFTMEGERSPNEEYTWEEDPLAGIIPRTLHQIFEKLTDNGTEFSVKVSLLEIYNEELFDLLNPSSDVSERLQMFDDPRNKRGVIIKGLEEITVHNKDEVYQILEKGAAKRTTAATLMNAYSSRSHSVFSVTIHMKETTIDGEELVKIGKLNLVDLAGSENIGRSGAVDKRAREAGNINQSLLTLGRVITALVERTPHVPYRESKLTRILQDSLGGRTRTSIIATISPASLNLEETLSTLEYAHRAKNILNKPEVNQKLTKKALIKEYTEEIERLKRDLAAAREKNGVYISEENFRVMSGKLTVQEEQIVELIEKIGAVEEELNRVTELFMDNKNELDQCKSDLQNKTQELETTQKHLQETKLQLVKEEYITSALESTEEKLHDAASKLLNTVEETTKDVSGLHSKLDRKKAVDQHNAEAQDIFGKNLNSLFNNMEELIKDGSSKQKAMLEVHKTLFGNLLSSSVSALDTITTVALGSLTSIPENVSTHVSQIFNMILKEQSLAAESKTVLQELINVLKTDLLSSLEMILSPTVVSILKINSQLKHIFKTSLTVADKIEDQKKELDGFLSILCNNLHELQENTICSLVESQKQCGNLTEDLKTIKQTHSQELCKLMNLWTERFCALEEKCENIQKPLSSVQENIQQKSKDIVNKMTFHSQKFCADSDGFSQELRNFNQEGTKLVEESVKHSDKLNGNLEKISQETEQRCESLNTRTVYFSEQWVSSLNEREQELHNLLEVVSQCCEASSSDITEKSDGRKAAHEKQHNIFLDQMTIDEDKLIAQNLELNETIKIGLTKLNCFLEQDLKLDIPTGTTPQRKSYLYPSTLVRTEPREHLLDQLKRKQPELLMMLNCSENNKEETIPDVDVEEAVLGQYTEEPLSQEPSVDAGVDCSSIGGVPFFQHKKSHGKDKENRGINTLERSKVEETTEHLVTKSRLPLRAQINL
# Experiment: Binding Assay
# From the text: Binding assay using temperature-dependent circular dichroism (TdCD). In TdCD, the loss of protein secondary structure was monitored as a function of temperature. Proteins bound with ligand become more resistant to thermal unfolding compared to the unliganded protein because of the additional stabilization interactions created between the ligand and protein.
row,SMILES,Kd [nM]
1,COc1ccc(Nc2nc3cc(C(=O)O)ccc3n2Cc2ccccc2C(F)(F)F)cc1,1200
2,"CSc1ccc(Nc2nc3cc(C(N)=O)ccc3n2Cc2ccccc2C(F)(F)F)cc1 [KSP Inhibitor, 4a]",2000
3,"CS(=O)(=O)c1ccc(Nc2nc3cc(C(N)=O)ccc3n2Cc2ccccc2C(F)(F)F)cc1 [KSP Inhibitor, 4b]",2500
4,"O=C(O)c1ccc2c(c1)nc(Nc1ccc(OCc3ccccc3)cc1)n2Cc1ccccc1C(F)(F)F [KSP Inhibitor, 4c]",14000
5,"COc1ccc(Nc2nc3cc(C(=O)O)ccc3n2Cc2ccccc2OC)cc1 [KSP Inhibitor, 4d]",5000
6,"NC(=O)c1ccc2c(c1)nc(Nc1ccc(S(N)(=O)=O)cc1)n2Cc1ccccc1C(F)(F)F [KSP Inhibitor, 4e]",600
7,"COc1ccc(Nc2nc3cc(C(=O)O)ccc3n2Cc2ccccc2OC(F)(F)F)cc1 [KSP Inhibitor, 4g]",3400
